Assay results taken from patent US20060135485A1, “Microbicidal compositions and their use” (priority 2002, published 2006).

What was measured:
Type in all cases: cell-based
[1] = system: Pseudomonas aeruginosa ATCC 9027, Candida albicans ATCC 10231, Aspergillus niger ATCC 16404; assay: Preservation loading test in styrene butadiene emulsions; conditions: sole active component, neutral conditions, typical polymer emulsion; bacteria, yeasts and moulds
Experimental: Styrene Butadiene Emulsions were inoculated with 1×10^6 of the test culture, stored for 7 days at 25° C. and then a semi-quantitative determination of colony forming units was carried out. This loading test was carried out with a representative bacteria (Pseudomonas aeruginosa ATCC 9027), a representative yeast (Candida albicans ATCC 10231) and a representative mould (Aspergillus niger ATCC 16404) over consecutive weeks until the product has been subjected to (at least) three separate loadings of each culture type. The concentration of preserving agent at which no recovery of the test organisms was observed is the end point of the test and adequacy of preservation is assumed.

[2] = system: Aspergillus niger (ASN) ATCC 16404; assay: MIC culture tube dilution test; conditions: pH 7.2±0.2, 72 hour incubation at 36° C.
Experimental: (§1) Microbiocides and microbiocidal properties were determined experimentally. Very well suited test methods are described in detail in the German Society for Hygiene and Microbiology (GGHM) for the examination of disinfectants. In order to determine the MIC, culture tube dilution tests were carried out according to the “regulations for the examination and evaluation of chemical disinfection procedures (Edition 1.1.81, procedures slightly modified)” using a […]-soya bean meal peptide medium. The dilution was carried out with water of standardised hardness without further agents such as surfactants. The adjustment of the pH values to 7.2±0.2 was carried out with 0.1 mol/NaOH or 0.1 mol/HCl. The gradation of test concentrations was made according to the concentration steps proposed by the GGHM. The evaluation was carried out after a 72 hour incubation at 36° C. [table] One part polyvinylamine, consisting of 95 wt % vinyl units and 5 wt % vinylformamide units with a K-value of 90 were mixed with 4.2 parts cyclohexyldiazeniumdioxy potassium. […] The effectiveness was determined according to the abovementioned methods. MIC stated here gives the minimal effective concentration, in which a.i. (active ingredient) means the active component.

[3] = system: Candida albicans (CA) ATCC 10231; assay: MIC culture tube dilution test; conditions: pH 7.2±0.2, 72 hour incubation at 36° C.
Experimental: as §1

[4] = system: Escherichia coli (EC) ATCC 11229; assay: MIC culture tube dilution test; conditions: pH 7.2±0.2, 72 hour incubation at 36° C.
Experimental: as §1

[5] = system: Proteus mirabilis (PRM) ATCC 14153; assay: MIC culture tube dilution test; conditions: pH 7.2±0.2, 72 hour incubation at 36° C.
Experimental: as §1

[6] = system: Pseudomonas aeruginosa (PSA) ATCC 15442; assay: MIC culture tube dilution test; conditions: pH 7.2±0.2, 72 hour incubation at 36° C.
Experimental: as §1

[7] = system: Staphylococcus aureus (STA) ATCC 6538; assay: MIC culture tube dilution test; conditions: pH 7.2±0.2, 72 hour incubation at 36° C.
Experimental: as §1

O=NN(O)C1CCCCC1.[K] [KHDO, potassium salt of N′-hydroxy-N-cyclohexyl-diazenium oxide]
Killing of spoilage microorganisms (in words) [1]: able not only to inhibit but actively kill a representative range of spoilage microorganisms | MIC Cyclohexyldiazeniumdioxy potassium [ppm a.i.] B [2]: 175 ppm a.i. | MIC Cyclohexyldiazeniumdioxy potassium [ppm a.i.] B [3]: 350 ppm a.i. | MIC Cyclohexyldiazeniumdioxy potassium [ppm a.i.] B [4]: 350 ppm a.i. | MIC Cyclohexyldiazeniumdioxy potassium [ppm a.i.] B [5]: 750 ppm a.i. | MIC Cyclohexyldiazeniumdioxy potassium [ppm a.i.] B [6]: 3000 ppm a.i. | MIC Cyclohexyldiazeniumdioxy potassium [ppm a.i.] B [7]: 750 ppm a.i.
